Assay results as given in US20230113037A1 (Bayer Aktiengesellschaft, priority 2019, published 2023).
Read-outs that look alike come from different tables or passages of the source.

Legend:
AHR [1] = target: T1, AHR (Homo sapiens, UniProt P35869); assay: In vitro assay 1: antagonism in human cell line (AHR transactivation, firefly luciferase reporter, kynurenic acid prestimulated); format: cell-based; details: AHR Antagonism Human IC50 [M]
T1 construct: U87 MG glioblastoma cells (ATCC #HTB-14) endogenously expressing AHR; endogenous in cells; host or cells: U87 MG glioblastoma cells (ATCC #HTB-14)
T1 sequence (P35869 11-848): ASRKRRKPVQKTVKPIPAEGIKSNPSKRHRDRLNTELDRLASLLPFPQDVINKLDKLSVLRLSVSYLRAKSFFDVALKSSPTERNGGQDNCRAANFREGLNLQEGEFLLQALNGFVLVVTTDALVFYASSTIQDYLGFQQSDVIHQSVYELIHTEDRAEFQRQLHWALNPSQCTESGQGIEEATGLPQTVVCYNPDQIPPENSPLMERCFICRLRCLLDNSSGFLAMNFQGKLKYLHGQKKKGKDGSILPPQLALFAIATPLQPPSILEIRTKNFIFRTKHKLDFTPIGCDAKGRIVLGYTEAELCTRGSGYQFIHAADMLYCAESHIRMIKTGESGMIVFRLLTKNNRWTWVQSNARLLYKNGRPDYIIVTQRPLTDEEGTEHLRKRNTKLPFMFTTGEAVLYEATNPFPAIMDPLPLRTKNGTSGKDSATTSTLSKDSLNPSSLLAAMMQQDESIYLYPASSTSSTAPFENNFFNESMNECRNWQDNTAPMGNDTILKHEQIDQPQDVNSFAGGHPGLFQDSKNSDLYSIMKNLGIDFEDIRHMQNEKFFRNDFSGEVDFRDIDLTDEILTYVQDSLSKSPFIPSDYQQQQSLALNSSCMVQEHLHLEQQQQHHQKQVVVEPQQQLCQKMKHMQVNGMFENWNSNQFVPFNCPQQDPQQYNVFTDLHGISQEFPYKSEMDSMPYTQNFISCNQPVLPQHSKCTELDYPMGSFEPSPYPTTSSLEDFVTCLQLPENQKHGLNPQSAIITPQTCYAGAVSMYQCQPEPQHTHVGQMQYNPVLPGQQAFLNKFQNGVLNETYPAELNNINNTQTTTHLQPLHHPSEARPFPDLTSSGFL
Outline: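 U87 MG + DRE-firefly/constitutive-Renilla stable reporters; kynurenic acid prestim; dual-luc read; Renilla = tox; normalized vs pos/neg controls (pos: 150 μM KYNA + 5 μM staurosporine).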

AHR [2] = target: T2, AHR (Mus musculus, UniProt P30561); assay: In vitro assay 3: antagonism in mouse cell line (AHR transactivation, firefly luciferase reporter, kynurenic acid prestimulated); format: cell-based
T2 sequence (P30561 1-848 P471L/N533S/M589L): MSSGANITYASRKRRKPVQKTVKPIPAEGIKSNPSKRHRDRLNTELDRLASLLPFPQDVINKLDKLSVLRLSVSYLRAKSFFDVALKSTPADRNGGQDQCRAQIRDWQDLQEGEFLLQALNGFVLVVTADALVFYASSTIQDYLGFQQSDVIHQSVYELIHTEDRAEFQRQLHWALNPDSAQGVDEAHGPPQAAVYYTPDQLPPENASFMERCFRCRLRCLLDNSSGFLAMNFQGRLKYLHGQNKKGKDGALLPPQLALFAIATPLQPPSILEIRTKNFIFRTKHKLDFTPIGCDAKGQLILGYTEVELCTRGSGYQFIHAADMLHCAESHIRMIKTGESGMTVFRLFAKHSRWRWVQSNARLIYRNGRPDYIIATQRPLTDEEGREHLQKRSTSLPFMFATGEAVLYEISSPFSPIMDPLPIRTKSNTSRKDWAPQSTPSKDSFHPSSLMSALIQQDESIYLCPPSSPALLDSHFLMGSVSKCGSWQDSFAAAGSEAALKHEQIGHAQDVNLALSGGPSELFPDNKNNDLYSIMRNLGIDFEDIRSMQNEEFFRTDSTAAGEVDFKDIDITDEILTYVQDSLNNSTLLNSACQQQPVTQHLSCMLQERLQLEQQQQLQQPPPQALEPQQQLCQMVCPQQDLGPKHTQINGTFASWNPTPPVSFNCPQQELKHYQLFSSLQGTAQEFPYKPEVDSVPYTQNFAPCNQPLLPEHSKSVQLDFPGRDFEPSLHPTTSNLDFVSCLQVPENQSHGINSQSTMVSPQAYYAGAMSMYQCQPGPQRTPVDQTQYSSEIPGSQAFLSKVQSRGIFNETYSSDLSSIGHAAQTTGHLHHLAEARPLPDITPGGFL
Outline: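 Mouse cells stably carrying a DRE-driven, AHR-inducible firefly luciferase reporter were prestimulated with the endogenous agonist kynurenic acid before compound addition. Luciferase activity was measured by luminescence and normalized to positive and negative controls, with cells lacking kynurenic acid serving as full-inhibition control. Repeat tests are reported as mean or median.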

[3] = mouse Hepa 1c1c7 cells, 200 μM kynurenic acid, 20 hours, read-out: AHR Antagonism Mouse IC50
[4] = Hepa 1c1c7 cells, 200 μM kynurenic acid, 20 hours, firefly luciferase reporter, read-out: AHR Antagonism Mouse IC50

Structure (SMILES)	IC50 (AHR [1])	IC50 (AHR [2]; [3])	IC50 (AHR [1]; firefly luciferase reporter)	IC50 (AHR [2]; [4])	IC50 (AHR [2]; read-out: AHR Antagonism Mouse IC50, mouse Hepa 1c1c7 cells, 200 μM kynurenic acid, 20 hours)
Cc1cscc1-c1nc2c3ccccc3nc(N[C@@H]3CCCCNC3=O)n2n1 [Example 538, (3R)-3-{[2-(4-methylthiophen-3-yl)[1,2,4]triazolo[1,5-c]quinazolin-5-yl]amino}azepan-2-one]	8.79e-10 M	0.646 nM	–	–	–
COc1ccc(-c2nc3c4cccc(C(C)C)c4nc(N[C@@H]4CCCCNC4=O)n3n2)cc1 [Example 587, (3R)-3-{[2-(4-methoxyphenyl)-7-(propan-2-yl)[1,2,4]triazolo[1,5-c]quinazolin-5-yl]amino}azepan-2-one]	7.7e-09 M	20.6 nM	–	–	–
COc1ccc(-c2nc3c4ccccc4nc(N[C@@H]4CCCCNC4=O)n3n2)cc1 [Example 29, (3R)-3-{[2-(4-methoxyphenyl)[1,2,4]triazolo[1,5-c]quinazolin-5-yl]amino}azepan-2-one]	4.03e-10 M	0.524 nM	–	–	–
O=C1NCCCC[C@H]1Nc1nc2ccccc2c2nc(-c3cnn(C(F)F)c3)nn12 [Example 534, (3R)-3-({2-[1-(difluoromethyl)-1H-pyrazol-4-yl][1,2,4]triazolo[1,5-c]quinazolin-5-yl}amino)azepan-2-one]	2.03e-09 M	0.828 nM	–	–	–
Cn1cc(-c2nc3c4cccc(C(F)(F)F)c4nc(NC4C(=O)NCC4(C)C)n3n2)cn1 (single isomer, unassigned; (-)) [Example 729, (−)-4,4-dimethyl-3-{[2-(1-methyl-1H-pyrazol-4-yl)-7-(trifluoromethyl)[1,2,4]triazolo[1,5-c]quinazolin-5-yl]amino}pyrrolidin-2-one]	3.6e-06 M	161 nM	–	–	–
O=C1NCCCC[C@@H]1Nc1nc2ccccc2c2nc(-c3cnccn3)nn12 [Example 695, (3S)-3-{[2-(pyrazin-2-yl)[1,2,4]triazolo[1,5-c]quinazolin-5-yl]amino}azepan-2-one]	2.96e-06 M	2190 nM	–	–	–
CC[C@@H](Nc1nc2c(Br)cccc2c2nc(-c3ccc(Cl)cc3OC(F)F)nn12)C(N)=O [Example 577, (2R)-2-({7-bromo-2-[4-chloro-2-(difluoromethoxy)phenyl][1,2,4]triazolo[1,5-c]quinazolin-5-yl}amino)butanamide]	6.6e-10 M	–	–	–	0.281 nM
CCn1cc(-c2nc3c4cccc(Cl)c4nc(N[C@@H]4CNCCNC4=O)n3n2)c(C)n1 [Example 958, (6R)-6-{[7-chloro-2-(1-ethyl-3-methyl-1H-pyrazol-4-yl)[1,2,4]triazolo[1,5-c]quinazolin-5-yl]amino}-1,4-diazepan-5-one]	–	–	1.9e-09 M	2.84 nM	–
COc1ccc(-c2nc3c4cccc(Br)c4nc(N[C@@H]4CN(C)CCNC4=O)n3n2)cc1 [Example 995, (6R)-6-{[7-bromo-2-(4-methoxyphenyl)[1,2,4]triazolo[1,5-c]quinazolin-5-yl]amino}-1-methyl-1,4-diazepan-5-one]	–	–	6.97e-10 M	2.11 nM	–
CC[C@H](Nc1nc2ccccc2c2nc(-c3ccc(OC)cc3)nn12)C(N)=O [Example 434, (2S)-2-{[2-(4-methoxyphenyl)[1,2,4]triazolo[1,5-c]quinazolin-5-yl]amino}butanamide]	6.43e-08 M	75 nM	–	–	–
COc1ccc(-c2nc3c4cccc(OCCC(C)(C)O)c4nc(N[C@@H]4CCCCNC4=O)n3n2)cc1 [Example 1000, (3R)-3-{[7-(3-hydroxy-3-methylbutoxy)-2-(4-methoxyphenyl)[1,2,4]triazolo[1,5-c]quinazolin-5-yl]amino}azepan-2-one]	–	–	9.07e-09 M	8.3 nM	–

Now from value to molecule, other results behind:

IC50 (AHR [1])	IC50 (AHR [2]; [3])	IC50 (AHR [1]; firefly luciferase reporter)	IC50 (AHR [2]; [4])	Structure (SMILES)	IC50 (AHR [2]; read-out: AHR Antagonism Mouse IC50, mouse Hepa 1c1c7 cells, 200 μM kynurenic acid, 20 hours)
1.66e-08 M	6.64 nM	–	–	O=C1NCCCC[C@H]1Nc1nc2ccccc2c2nc(-c3cnsc3)nn12 [Example 645, (3R)-3-{[2-(1,2-thiazol-4-yl)[1,2,4]triazolo[1,5-c]quinazolin-5-yl]amino}azepan-2-one]	–
–	–	1.27e-08 M	66.9 nM	COc1ccc(-c2nc3c4cccc(S(C)(=O)=O)c4nc(N[C@@H]4CNCCNC4=O)n3n2)cc1 [Example 936, (6R)-6-{[7-(methanesulfonyl)-2-(4-methoxyphenyl)[1,2,4]triazolo[1,5-c]quinazolin-5-yl]amino}-1,4-diazepan-5-one]	–
3.72e-09 M	3.94 nM	–	–	CCCCNC(=O)[C@H](C)Nc1nc2ccccc2c2nc(-c3ccc(Cl)cc3OC(F)F)nn12 [Example 533, N-butyl-N^2-{2-[4-chloro-2-(difluoromethoxy)phenyl][1,2,4]triazolo[1,5-c]quinazolin-5-yl}alaninamide]	–
4.91e-09 M	5.55 nM	–	–	COc1ccc(-c2nc3c4cccc(Br)c4nc(N[C@H](C)C(=O)NCCN4CCN(C)CC4)n3n2)cc1 [Example 780, N^2-[7-bromo-2-(4-methoxyphenyl)[1,2,4]triazolo[1,5-c]quinazolin-5-yl]-N-[2-(4-methylpiperazin-1-yl)ethyl]-D-alaninamide]	–
–	–	3.9e-09 M	4.45 nM	COc1ccc(-c2nc3c4ccccc4nc(N[C@H](C)C(=O)NCCN(C)C(=O)OC(C)(C)C)n3n2)cc1 [Example 889, tert-butyl [2-({N-[2-(4-methoxyphenyl)[1,2,4]triazolo[1,5-c]quinazolin-5-yl]-D-alanyl}amino)ethyl]methylcarbamate]	–
2.58e-07 M	6640 nM	–	–	CN1CC[C@@H](Nc2nc3c(C(F)(F)F)cccc3c3nc(-c4cnn(C)c4)nn23)C1=O [Example 733, (3R)-1-methyl-3-{[2-(1-methyl-1H-pyrazol-4-yl)-7-(trifluoromethyl)[1,2,4]triazolo[1,5-c]quinazolin-5-yl]amino}pyrrolidin-2-one]	–
8.57e-10 M	0.995 nM	–	–	COc1ccc(-c2nc3c4cccc(Br)c4nc(N[C@H](C)C(=O)N4CCOCC4)n3n2)cc1 [Example 773, (2R)-2-{[7-bromo-2-(4-methoxyphenyl)[1,2,4]triazolo[1,5-c]quinazolin-5-yl]amino}-1-(morpholin-4-yl)propan-1-one]	–
4.99e-09 M	0.84 nM	–	–	CC[C@@H](Nc1nc2ccccc2c2nc(-c3ccc(Cl)cc3OC(F)(F)F)nn12)C(N)=O [Example 523, (2R)-2-({2-[4-chloro-2-(trifluoromethoxy)phenyl][1,2,4]triazolo[1,5-c]quinazolin-5-yl}amino)butanamide]	–
–	–	2.3e-08 M	19.5 nM	C[C@@H]1CN(C(=O)[C@@H](C)Nc2nc3c(Br)cccc3c3nc(-c4cnn(C)c4)nn23)CCO1 [Example 906, (2R)-2-{[7-bromo-2-(1-methyl-1H-pyrazol-4-yl)[1,2,4]triazolo[1,5-c]quinazolin-5-yl]amino}-1-[(2R)-2-methylmorpholin-4-yl]propan-1-one]	–
2.62e-08 M	68 nM	–	–	O=C1NCCC1Nc1nc2ccccc2c2nc(-c3cccc(F)c3)nn12 (stereo not drawn) [Example 9, 3-{[2-(3-fluorophenyl)[1,2,4]triazolo[1,5-c]quinazolin-5-yl]amino}pyrrolidin-2-one]	–
